The NIST ThermoML archive (doi:10.1021/je049818g)
Numbers after ± are expanded uncertainties.

Conditions: Liquid, Hot wire method

CCCCOCCO [2-butoxyethan-1-ol]
Conditions	thermal conductivity [W/m/K]
283.96 K	0.1381 ± 0.0056
293.67 K	0.1365 ± 0.0055
303.56 K	0.135 ± 0.0054
314.25 K	0.1333 ± 0.0054
323.88 K	0.1319 ± 0.0053
333.98 K	0.1305 ± 0.0053
344.05 K	0.129 ± 0.0052
354.63 K	0.1272 ± 0.0051
363.59 K	0.1258 ± 0.0051
373.84 K	0.1241 ± 0.005

CCC(C)=O [butanone]
Conditions	thermal conductivity [W/m/K]
284.48 K	0.1501 ± 0.006
294.42 K	0.1481 ± 0.006
305.02 K	0.1459 ± 0.0059
314.26 K	0.1435 ± 0.0058
323.96 K	0.1414 ± 0.0057
334.71 K	0.139 ± 0.0056
344.54 K	0.1362 ± 0.0055
354.33 K	0.1334 ± 0.0054
364.46 K	0.1308 ± 0.0053
374.56 K	0.1284 ± 0.0052

COC [dimethyl ether]
Conditions	thermal conductivity [W/m/K]
229.67 K	0.1832 ± 0.0074
244.98 K	0.1762 ± 0.0071
254.6 K	0.1701 ± 0.0068
271.55 K	0.1605 ± 0.0064
281.76 K	0.1537 ± 0.0062
291.33 K	0.1485 ± 0.006

Cc1ccccc1 [toluene]
Conditions	thermal conductivity [W/m/K]
234.6 K	0.1477 ± 0.0059
254.58 K	0.1434 ± 0.0058
273.17 K	0.1374 ± 0.0055
293.23 K	0.1334 ± 0.0054
314.68 K	0.1264 ± 0.0051
334.99 K	0.1211 ± 0.0049
354.89 K	0.1136 ± 0.0046
373.92 K	0.1105 ± 0.0044
